Source: paper PMC10225205 (Cancer Medicine, 2023)
Where two headings read alike, the source gives them in different places.

Tests used:
[1] = system: advanced solid tumors; assay: FIGHT-102 efficacy, investigator-assessed RECIST 1.1; format: in vivo, human; design: key to Best overall response: PR, partial response; SD, stable disease; PD, progressive disease; NE, not evaluable
Protocol: Efficacy assessments occurred at screening (baseline scan) and on Day 15 of every third cycle with a ±2‐day window. Tumor status was assessed by the investigator using appropriate disease‐specific techniques. For solid tumors, the Response Evaluation Criteria in Solid Tumors (RECIST) 1.1 criteria were used,[19] and the recommended method for measuring tumor burden was computed tomography scan. Alternative modalities compatible with RECIST 1.1 could be used at the investigator's discretion provided they were used consistently throughout the study.
Both the efficacy and the safety population included all patients who received at least 1 dose of study drug. The PK/pharmacodynamic population included all patients who received at least one dose of study drug and provided at least one postdose plasma sample for PK/pharmacodynamic measurement. No comparisons are made between patients or against historical controls; only comparisons to pretreatment conditions were made.

[2] = FIGHT-101; cited from earlier work
[3] = system: refractory advanced malignancies; conditions: cited from earlier work
[4] = Part 2, 13.5 mg CD, breast cancer, local FGFR1 amp, FGFR3 mutation
[5] = Part 2, 13.5 mg CD, colorectal cancer, central FGFR1 amp
[6] = Part 2, 13.5 mg CD, gallbladder cancer, central FGF3/4/19 amp
[7] = Part 2, 13.5 mg CD, other (prostate cancer), central FGFR1 amp
[8] = Part 2, 13.5 mg CD, other (rectal cancer), central FGFR1 amp
[9] = Part 2, 13.5 mg CD, other (uterine cervix carcinoma), central FGFR2 amp
[10] = Part 2, 13.5 mg CD, urothelial tract/bladder cancer (bladder cancer), central FGF3/4/19 amp, FGFR3 alteration
[11] = Part 2, 13.5 mg CD, urothelial tract/bladder cancer (renal pelvis cancer), central FGF3/4/19 amp
[12] = Part 2, 13.5 mg ID, breast cancer, central FGFR1 amp
[13] = Part 2, 13.5 mg ID, cholangiocarcinoma, central FGFR2 alteration, local FGFR2 translocation
[14] = Part 2, 13.5 mg ID, cholangiocarcinoma, central FGFR3 mutation
[15] = Part 2, 13.5 mg ID, colorectal cancer, central FGFR1 amp
[16] = Part 2, 13.5 mg ID, esophageal cancer, central FGF3/4/12/19 amp
[17] = Part 2, 13.5 mg ID, esophageal cancer, central FGFR1 amp
[18] = Part 2, 13.5 mg ID, lung cancer (NSCLC), central FGFR1 amp, FGF12 amp
[19] = Part 2, 13.5 mg ID, other (apocrine sweat gland carcinoma), central FGFR2 amp
[20] = Part 2, 13.5 mg ID, other (intrahepatic cholangiocarcinoma), central FGFR3 fusion
[21] = Part 2, 13.5 mg ID, other (urachal cancer), central FGF3 amp
[22] = Part 2, 13.5 mg ID, urothelial tract/bladder cancer (bladder cancer), central FGFR3 mutation (p.Y373C)
[23] = Part 2, 13.5 mg ID, urothelial tract/bladder cancer (renal pelvis cancer), central FGF3/4/19 amp

Question: What does the source list for `CCN1C(=O)N(c2c(F)c(OC)cc(OC)c2F)Cc2cnc3[nH]c(CN4CCOCC4)cc3c21` [Pemigatinib]?
Answer: Median of best percentage change from baseline in target lesion size ([1]; Part 2): 15.2%; Patients achieving PR ([1]; Part 2, 13.5 mg CD): 4 n; Patients achieving PR ([1]; Part 2, 13.5 mg ID): 1 n; Partial response ([1]; Part 2, 5 patients): 16.7%; Stable disease ([1]; Part 2, 6 patients): 20%; Best change in sum of target lesion diameters [1, 4]: 6.4%; Best overall response [1, 4]: NE; Best overall response ([1]; Part 2, 13.5 mg CD, breast cancer, local FGFR2 amp (best change –26.2%)): SD; Best overall response ([1]; Part 2, 13.5 mg CD, breast cancer, local FGFR2 amp (best change –44.4%)): PR; Best change in sum of target lesion diameters ([1]; Part 2, 13.5 mg CD, breast cancer, local FGFR2 amp (patient with PR)): –44.4%; Best change in sum of target lesion diameters ([1]; Part 2, 13.5 mg CD, breast cancer, local FGFR2 amp (patient with SD)): –26.2%; Best change in sum of target lesion diameters ([1]; Part 2, 13.5 mg CD, cholangiocarcinoma, central none, local FGFR2 translocation): –30.6%; Best overall response ([1]; Part 2, 13.5 mg CD, cholangiocarcinoma, local FGFR2 translocation): PR; Best change in sum of target lesion diameters [1, 5]: 26.5%; Best overall response [1, 5]: PD; Best change in sum of target lesion diameters ([1]; Part 2, 13.5 mg CD, colorectal cancer, central none, local FGF19 amp): 41.0%; Best overall response ([1]; Part 2, 13.5 mg CD, colorectal cancer, local FGF19 amp): PD; Best overall response ([1]; Part 2, 13.5 mg CD, esophageal cancer, FGFR3 translocation: fusion): SD; Best change in sum of target lesion diameters ([1]; Part 2, 13.5 mg CD, esophageal cancer, central and local FGFR3 translocation: fusion): –4.3%; Best change in sum of target lesion diameters [1, 6]: –43.8%; Best overall response [1, 6]: PR; Best change in sum of target lesion diameters [1, 7]: 15.2%; Best overall response [1, 7]: PD; Best change in sum of target lesion diameters [1, 8]: 0.0%; Best overall response [1, 8]: SD; Best change in sum of target lesion diameters [1, 9]: 22.7%; Best overall response [1, 9]: PD; Best change in sum of target lesion diameters [1, 10]: –37.2%; Best overall response [1, 10]: PR; Best change in sum of target lesion diameters [1, 11]: 12.1%; Best overall response [1, 11]: PD; Best change in sum of target lesion diameters [1, 12]: 18.1%; Best overall response [1, 12]: PD; Best change in sum of target lesion diameters [1, 13]: –13.8%; Best overall response [1, 13]: SD; Best change in sum of target lesion diameters [1, 14]: 30.9%; Best overall response [1, 14]: PD; Best change in sum of target lesion diameters [1, 15]: 44.7%; Best overall response [1, 15]: PD; Best change in sum of target lesion diameters [1, 16]: 34.9%; Best overall response [1, 16]: PD; Best overall response ([1]; Part 2, 13.5 mg ID, esophageal cancer, central FGF3/4/19 amp, local FGF19 amp): PD; Best change in sum of target lesion diameters [1, 17]: 6.5%; Best overall response [1, 17]: SD; Best change in sum of target lesion diameters ([1]; Part 2, 13.5 mg ID, esophageal cancer, central FGFR1 amp, FGF3/4/19 amp (first of two such patients)): 37.8%; Best overall response ([1]; Part 2, 13.5 mg ID, esophageal cancer, central FGFR1 amp, FGF3/4/19 amp (first of two)): PD; Best change in sum of target lesion diameters ([1]; Part 2, 13.5 mg ID, esophageal cancer, central FGFR1 amp, FGF3/4/19 amp (second of two such patients)): 3.0%; Best overall response ([1]; Part 2, 13.5 mg ID, esophageal cancer, central FGFR1 amp, FGF3/4/19 amp (second of two)): PD; Best change in sum of target lesion diameters ([1]; Part 2, 13.5 mg ID, gallbladder cancer, central none, local FGFR3 mutation): 25.0%; Best overall response ([1]; Part 2, 13.5 mg ID, gallbladder cancer, local FGFR3 mutation): PD; Best change in sum of target lesion diameters [1, 18]: 22.2%; Best overall response [1, 18]: PD; Best change in sum of target lesion diameters [1, 19]: –42.1%; Best overall response [1, 19]: PR; Best change in sum of target lesion diameters [1, 20]: 65.2%; Best overall response [1, 20]: PD; Best change in sum of target lesion diameters [1, 21]: 44.8%; Best overall response [1, 21]: PD; Best overall response ([1]; Part 2, 13.5 mg ID, pancreatic cancer (neuroendocrine), central FGFR1 amp): PD; Best change in sum of target lesion diameters ([1]; Part 2, 13.5 mg ID, pancreatic cancer (neuroendocrine), central FGFR1 amp, local FGFR1 mutation (p.N577K)): 40.8%; Best change in sum of target lesion diameters [1, 22]: –19.6%; Best overall response [1, 22]: SD; Best change in sum of target lesion diameters [1, 23]: 24.2%; Best overall response [1, 23]: PD; Median duration of response ([1]; responders, Part 2, 95% CI: 4.17, 14.95): 9.56 months; Most common (>30%) overall TEAEs [2]: hyperphosphatemia, fatigue, dry mouth, stomatitis, diarrhea, and alopecia; Recommended dosage for further studies [2]: 13.5 mg QD; Median progression-free survival ([3]; FGFR fusions or rearrangements, 95% CI 2.8–10.0): 5.7 months; Objective response rate ([3]; FGFR fusions or rearrangements, 95% CI 8.7–49.1): 25.0%; Partial responses ([3]; across tumor types): 12 n; Objective response rate ([3]; all patients, 95% CI 4.9–15.8): 9.4%; Median duration of response ([3]; all responders, 95% CI 3.3–14.5): 7.3 months
